Experimental data from publication PMC5218480 (PLoS ONE, 2017).

Test system: MV-4-11 cells
Assay: Gene expression microarray analysis (Affymetrix PrimeView) and GSEA
Assay type: cell-based, human
Set-up: RFU PODN (11730768_x_at) / Fold change /veh PODN (11730768_x_at) / RFU LINC00158 (11744669_a_at) / Fold change /veh LINC00158 (11744669_a_at) / RFU DUSP10 (11751237_a_at) / Fold change /veh DUSP10 (11751237_a_at) / RFU ID3 (11757404_x_at) / Fold change /veh ID3 (11757404_x_at) / RFU PLEKHG5 (11737974_s_at) / Fold change /veh PLEKHG5 (11737974_s_at) / RFU LRRC4B (11730491_at) / Fold change /veh LRRC4B (11730491_at) / RFU GIMAP4 (11747438_a_at) / Fold change /veh GIMAP4 (11747438_a_at) / RFU KRT8 (11758183_x_at) / Fold change /veh KRT8 (11758183_x_at) / RFU CNN1 (11734310_a_at) / Fold change /veh CNN1 (11734310_a_at) / RFU VPS37D (11726825_at) / Fold change /veh VPS37D (11726825_at) / RFU C10orf10 (11716522_x_at) / Fold change /veh C10orf10 (11716522_x_at) / RFU KIR2DL2 /// KIR2DL4 /// KIR2DL5A /// KIR2DL5B /// KIR2DS1 /// KIR2DS2 /// KIR2DS3 /// KIR2DS4 /// KIR3DL3 /// KIR3DL3 /// KIR3DS1 (11738374_at) / Fold change /veh KIR2DL2 /// KIR2DL4 /// KIR2DL5A /// KIR2DL5B /// KIR2DS1 /// KIR2DS2 /// KIR2DS3 /// KIR2DS4 /// KIR3DL3 /// KIR3DL3 /// KIR3DS1 (11738374_at) / RFU C1QL1 (11718748_at) / Fold change /veh C1QL1 (11718748_at) / RFU TMPRSS4 (11747572_a_at) / Fold change /veh TMPRSS4 (11747572_a_at) / RFU HAMP (11756126_x_at) / Fold change /veh HAMP (11756126_x_at) / RFU RNFT2 (11725882_a_at) / Fold change /veh RNFT2 (11725882_a_at) / RFU NR4A2 (11747474_a_at) / Fold change /veh NR4A2 (11747474_a_at) / RFU ABCC12 (11746883_a_at) / Fold change /veh ABCC12 (11746883_a_at) / RFU TMEM136 (11760407_x_at) / Fold change /veh TMEM136 (11760407_x_at) / RFU CLDN22 /// WWC2 (11732394_at) / Fold change /veh CLDN22 /// WWC2 (11732394_at) / RFU HLA-DPB1 (11760878_x_at) / Fold change /veh HLA-DPB1 (11760878_x_at) / RFU SPINT1 (11716480_a_at) / Fold change /veh SPINT1 (11716480_a_at) / RFU GAP43 (11754022_s_at) / Fold change /veh GAP43 (11754022_s_at) / RFU A4GNT (11735810_at) / Fold change /veh A4GNT (11735810_at) / RFU PRB3 (11715151_x_at) / Fold change /veh PRB3 (11715151_x_at) / RFU TUBB4B (11761932_at) / Fold change /veh TUBB4B (11761932_at) / RFU CAPN14 (11732068_a_at) / Fold change /veh CAPN14 (11732068_a_at) / RFU TMCC2 (11721928_a_at) / Fold change /veh TMCC2 (11721928_a_at) / RFU IRGQ (11745062_a_at) / Fold change /veh IRGQ (11745062_a_at) / RFU FAM174B (11720279_a_at) / Fold change /veh FAM174B (11720279_a_at) / RFU TMPRSS4 (11748680_a_at) / Fold change /veh TMPRSS4 (11748680_a_at) / RFU FAM212B (11763350_a_at) / Fold change /veh FAM212B (11763350_a_at) / RFU PLEKHG5 (11743358_a_at) / Fold change /veh PLEKHG5 (11743358_a_at) / RFU ZSCAN30 (11745921_a_at) / Fold change /veh ZSCAN30 (11745921_a_at) / RFU CMKLR1 (11741424_a_at) / Fold change /veh CMKLR1 (11741424_a_at) / RFU LOC101060620 /// MAPK8IP1 (11723275_at) / Fold change /veh LOC101060620 /// MAPK8IP1 (11723275_at) / RFU SPTSSB (11747773_x_at) / Fold change /veh SPTSSB (11747773_x_at) / RFU PRSS12 (11739890_at) / Fold change /veh PRSS12 (11739890_at) / RFU BIN1 (11741810_x_at) / Fold change /veh BIN1 (11741810_x_at) / RFU WNT11 (11732464_a_at) / Fold change /veh WNT11 (11732464_a_at) / RFU C10orf10 (11716521_a_at) / Fold change /veh C10orf10 (11716521_a_at) / RFU C5orf56 (11738089_at) / Fold change /veh C5orf56 (11738089_at) / RFU CYB561 (11721691_x_at) / Fold change /veh CYB561 (11721691_x_at) / RFU ANKRD19P (11752326_a_at) / Fold change /veh ANKRD19P (11752326_a_at) / RFU OR2T12 /// OR2T33 /// OR2T8 (11738714_s_at) / Fold change /veh OR2T12 /// OR2T33 /// OR2T8 (11738714_s_at) / RFU VCAN (11748164_a_at) / Fold change /veh VCAN (11748164_a_at) / RFU JSRP1 (11732532_at) / Fold change /veh JSRP1 (11732532_at) / RFU KRTAP10-11 (11738290_x_at) / Fold change /veh KRTAP10-11 (11738290_x_at) / RFU MYO3A (11730013_a_at) / Fold change /veh MYO3A (11730013_a_at) / RFU EBF3 (11725865_a_at) / Fold change /veh EBF3 (11725865_a_at) / RFU CAMK2N1 (11719241_x_at) / Fold change /veh CAMK2N1 (11719241_x_at) / RFU C5orf56 (11738088_a_at) / Fold change /veh C5orf56 (11738088_a_at) / RFU OLFML3 (11715873_a_at) / Fold change /veh OLFML3 (11715873_a_at) / RFU LOC100653217 /// NTM (11731650_a_at) / Fold change /veh LOC100653217 /// NTM (11731650_a_at) / RFU MAPK11 (11762145_a_at) / Fold change /veh MAPK11 (11762145_a_at) / RFU FIZ1 (11724087_x_at) / Fold change /veh FIZ1 (11724087_x_at) / RFU OASL (11726364_x_at) / Fold change /veh OASL (11726364_x_at) / RFU SOX15 (11748057_x_at) / Fold change /veh SOX15 (11748057_x_at) / RFU CD79A (11719716_a_at) / Fold change /veh CD79A (11719716_a_at) / RFU HIST1H1D (11736915_at) / Fold change /veh HIST1H1D (11736915_at) / RFU CASKIN2 (11723855_a_at) / Fold change /veh CASKIN2 (11723855_a_at) / RFU LOC730098 (11760151_x_at) / Fold change /veh LOC730098 (11760151_x_at) / RFU OR4N2 (11742367_at) / Fold change /veh OR4N2 (11742367_at) / RFU PRRT2 (11749266_a_at) / Fold change /veh PRRT2 (11749266_a_at) / RFU SNX32 (11753110_a_at) / Fold change /veh SNX32 (11753110_a_at) / RFU CDHR5 (11726645_a_at) / Fold change /veh CDHR5 (11726645_a_at) / RFU RCAN1 (11760418_a_at) / Fold change /veh RCAN1 (11760418_a_at) / RFU FAM167A (11723789_a_at) / Fold change /veh FAM167A (11723789_a_at) / RFU FAM26E (11764081_at) / Fold change /veh FAM26E (11764081_at) / RFU ISYNA1 (11749810_s_at) / Fold change /veh ISYNA1 (11749810_s_at) / RFU ACY1 (11761880_at) / Fold change /veh ACY1 (11761880_at) / RFU 11764098_at / Fold change /veh 11764098_at / RFU SAMD14 (11745864_x_at) / Fold change /veh SAMD14 (11745864_x_at) / RFU NPB (11741838_a_at) / Fold change /veh NPB (11741838_a_at) / RFU TMPRSS6 (11731388_a_at) / Fold change /veh TMPRSS6 (11731388_a_at) / RFU KRTAP10-2 (11738614_at) / Fold change /veh KRTAP10-2 (11738614_at) / RFU ARHGAP8 /// PRR5-ARHGAP8 (11727945_x_at) / Fold change /veh ARHGAP8 /// PRR5-ARHGAP8 (11727945_x_at) / RFU KRTAP5-7 /// NADSYN1 (11734609_at) / Fold change /veh KRTAP5-7 /// NADSYN1 (11734609_at) / RFU RASL12 (11751679_a_at) / Fold change /veh RASL12 (11751679_a_at) / RFU CDKN2B (11736163_a_at) / Fold change /veh CDKN2B (11736163_a_at) / RFU PRF1 (11729649_at) / Fold change /veh PRF1 (11729649_at) / RFU, ZNF638 /// ZNF638-IT1 / Fold change vs veh, ZNF638 /// ZNF638-IT1 / RFU, PANK3 / Fold change vs veh, PANK3 / RFU, SH3YL1 / Fold change vs veh, SH3YL1 / RFU, ZEB2 / Fold change vs veh, ZEB2 / RFU, NRIP1 / Fold change vs veh, NRIP1 / RFU, PTTG1IP / Fold change vs veh, PTTG1IP / RFU, CAPN2 / Fold change vs veh, CAPN2 / RFU, MED14 / Fold change vs veh, MED14 / RFU, SNORA58 / Fold change vs veh, SNORA58 / RFU, C1orf63 / Fold change vs veh, C1orf63 / RFU, LRRFIP1 / Fold change vs veh, LRRFIP1 / RFU, NDUFAF7 / Fold change vs veh, NDUFAF7 / RFU, SLC12A2 / Fold change vs veh, SLC12A2 / RFU, IBTK / Fold change vs veh, IBTK / RFU, ESF1 / Fold change vs veh, ESF1 / Fold change vs veh, TMEM50B / RFU, TAOK1 / Fold change vs veh, TAOK1 / RFU, ACBD3 / Fold change vs veh, ACBD3 / RFU, TMA16 / Fold change vs veh, TMA16 / RFU, RWDD3 / Fold change vs veh, RWDD3 / RFU, BCAT1 / Fold change vs veh, BCAT1 / RFU, EDEM3 / Fold change vs veh, EDEM3 / RFU, TMEM33 / Fold change vs veh, TMEM33 / RFU, WDR75 / Fold change vs veh, WDR75 / RFU, AHCTF1 / Fold change vs veh, AHCTF1 / RFU, TFRC / Fold change vs veh, TFRC / RFU, ZDHHC17 / Fold change vs veh, ZDHHC17 / RFU, NOM1 / Fold change vs veh, NOM1 / RFU, ARL8B / Fold change vs veh, ARL8B / RFU, ZBTB11 / Fold change vs veh, ZBTB11 / RFU, TAMM41 / Fold change vs veh, TAMM41 / RFU, KIAA1704 /// LOC100996395 / Fold change vs veh, KIAA1704 /// LOC100996395 / RFU, ING1 / Fold change vs veh, ING1 / RFU, TRMT61B / Fold change vs veh, TRMT61B / RFU, FUBP3 / Fold change vs veh, FUBP3 / RFU, TP53 / Fold change vs veh, TP53 / RFU, TNKS2 / Fold change vs veh, TNKS2 / RFU, ZFP14 / Fold change vs veh, ZFP14 / RFU, ACTR2 / Fold change vs veh, ACTR2 / RFU, PPP3R1 / Fold change vs veh, PPP3R1 / RFU, PIK3R1 / Fold change vs veh, PIK3R1 / RFU, HNRNPA1 / Fold change vs veh, HNRNPA1 / RFU, RNF170 / Fold change vs veh, RNF170 / RFU, ZNF28 / Fold change vs veh, ZNF28 / RFU, RNGTT / Fold change vs veh, RNGTT / RFU, OGT / Fold change vs veh, OGT / RFU, BRD1 / Fold change vs veh, BRD1 / RFU, MARS / Fold change vs veh, MARS / RFU, ZNF655 / Fold change vs veh, ZNF655 / RFU, FAHD1 / Fold change vs veh, FAHD1 / RFU, BDP1 / Fold change vs veh, BDP1 / RFU, LRRCC1 / Fold change vs veh, LRRCC1 / RFU, ARID1A / Fold change vs veh, ARID1A / RFU, ZNF146 / Fold change vs veh, ZNF146 / RFU, ZNF330 / Fold change vs veh, ZNF330 / RFU, GPN3 / Fold change vs veh, GPN3 / RFU, C9orf123 / Fold change vs veh, C9orf123 / RFU, N4BP2L2 / Fold change vs veh, N4BP2L2 / RFU, ARFIP1 / Fold change vs veh, ARFIP1 / RFU, FAM179B / Fold change vs veh, FAM179B / RFU, BCL10 / Fold change vs veh, BCL10 / RFU, UHRF1BP1L / Fold change vs veh, UHRF1BP1L / RFU, BET1 / Fold change vs veh, BET1 / RFU, CNOT2 / Fold change vs veh, CNOT2 / RFU, ZNF268 / Fold change vs veh, ZNF268 / Fold change vs veh, ZNF507 / RFU, DGCR2 / Fold change vs veh, DGCR2 / RFU, WDSUB1 / Fold change vs veh, WDSUB1 / Fold change vs veh, HSP90B1 /// MIR3652 / RFU, ADSS / Fold change vs veh, ADSS / RFU, GK / Fold change vs veh, GK / RFU, ZNF148 / Fold change vs veh, ZNF148 / RFU, TAF9 / Fold change vs veh, TAF9 / RFU, SLC1A5 / Fold change vs veh, SLC1A5 / RFU, SLMO2 / Fold change vs veh, SLMO2 / RFU, ABCC4 / Fold change vs veh, ABCC4 / RFU, LOC101060439 /// RAP1B / Fold change vs veh, LOC101060439 /// RAP1B / RFU, RFX7 / Fold change vs veh, RFX7 / RFU, GTPBP10 / Fold change vs veh, GTPBP10 / RFU, CNEP1R1 / Fold change vs veh, CNEP1R1 / RFU, BIVM-ERCC5 /// ERCC5 / Fold change vs veh, BIVM-ERCC5 /// ERCC5 / RFU, ILF3 / Fold change vs veh, ILF3 / RFU 11762660_at / Fold change /veh 11762660_at / RFU VCAN (11757783_s_at) / Fold change /veh VCAN (11757783_s_at) / RFU DDX43 (11728927_at) / Fold change /veh DDX43 (11728927_at) / RFU KRT8 (11758188_x_at) / Fold change /veh KRT8 (11758188_x_at) / RFU NKD1 (11759106_at) / Fold change /veh NKD1 (11759106_at) / RFU SRD5A1 (11742802_a_at) / Fold change /veh SRD5A1 (11742802_a_at) / RFU TPSAB1 /// TPSB2 (11721975_s_at) / Fold change /veh TPSAB1 /// TPSB2 (11721975_s_at) / RFU GSTM3 (11746129_a_at) / Fold change /veh GSTM3 (11746129_a_at) / RFU IL23R (11737362_x_at) / Fold change /veh IL23R (11737362_x_at) / RFU TMEM51 (11727254_a_at) / Fold change /veh TMEM51 (11727254_a_at) / RFU PIWIL2 (11732686_x_at) / Fold change /veh PIWIL2 (11732686_x_at) / RFU ORM1 (11744905_x_at) / Fold change /veh ORM1 (11744905_x_at) / RFU CCDC152 (11743942_at) / Fold change /veh CCDC152 (11743942_at) / RFU ECM1 (11717891_a_at) / Fold change /veh ECM1 (11717891_a_at) / RFU IL23R (11748794_a_at) / Fold change /veh IL23R (11748794_a_at) / RFU TNFAIP8L3 (11732012_x_at) / Fold change /veh TNFAIP8L3 (11732012_x_at) / RFU MBOAT4 (11741988_at) / Fold change /veh MBOAT4 (11741988_at) / RFU 11764193_at / Fold change /veh 11764193_at / RFU TMEM53 (11763286_at) / Fold change /veh TMEM53 (11763286_at) / RFU MAGEB2 (11727129_at) / Fold change /veh MAGEB2 (11727129_at) / RFU TMEM200A (11744735_a_at) / Fold change /veh TMEM200A (11744735_a_at) / RFU CCDC152 (11751479_a_at) / Fold change /veh CCDC152 (11751479_a_at) / RFU FAM211A (11726209_a_at) / Fold change /veh FAM211A (11726209_a_at) / RFU RGS16 (11746705_a_at) / Fold change /veh RGS16 (11746705_a_at) / RFU VCAN (11755009_s_at) / Fold change /veh VCAN (11755009_s_at) / RFU RHOB (11743442_s_at) / Fold change /veh RHOB (11743442_s_at) / RFU RGS16 (11720943_a_at) / Fold change /veh RGS16 (11720943_a_at) / RFU RGS16 (11720944_at) / Fold change /veh RGS16 (11720944_at) / RFU, VPS4B / Fold change vs veh, VPS4B / RFU, CREB1 / Fold change vs veh, CREB1 / RFU, DNAJC13 / Fold change vs veh, DNAJC13 / RFU, GNAQ / Fold change vs veh, GNAQ / RFU, CDK5R1 / Fold change vs veh, CDK5R1 / RFU, ZRANB3 / Fold change vs veh, ZRANB3 / RFU, CUL4A / Fold change vs veh, CUL4A / RFU, CCNY / Fold change vs veh, CCNY / RFU, UFL1 / Fold change vs veh, UFL1 / RFU, COG3 / Fold change vs veh, COG3 / RFU, DIAPH2 / Fold change vs veh, DIAPH2 / RFU, SKA2 / Fold change vs veh, SKA2 / RFU, AFF3 / Fold change vs veh, AFF3 / RFU, LMF1 / Fold change vs veh, LMF1 / RFU, IPO11 / Fold change vs veh, IPO11 / RFU, DFFB / Fold change vs veh, DFFB / RFU, FOXP1 / Fold change vs veh, FOXP1 / RFU, CARD8 / Fold change vs veh, CARD8 / RFU, STRN3 / Fold change vs veh, STRN3 / RFU, ADK / Fold change vs veh, ADK / RFU, RASSF2 / Fold change vs veh, RASSF2 / RFU, WIPF1 / Fold change vs veh, WIPF1 / RFU, LARP1B / Fold change vs veh, LARP1B / RFU, RASA1 / Fold change vs veh, RASA1 / RFU, RB1 / Fold change vs veh, RB1 / RFU, PPFIA1 / Fold change vs veh, PPFIA1 / RFU, MAT2A / Fold change vs veh, MAT2A / RFU, CCT5 / Fold change vs veh, CCT5 / RFU, WDR92 / Fold change vs veh, WDR92 / RFU, CUX1 / Fold change vs veh, CUX1 / RFU, TTC7A / Fold change vs veh, TTC7A / RFU, TMEM135 / Fold change vs veh, TMEM135 / RFU, DEPTOR / Fold change vs veh, DEPTOR / RFU, CPM / Fold change vs veh, CPM / RFU, DNAJB6 / Fold change vs veh, DNAJB6 / RFU, CACNA2D3 / Fold change vs veh, CACNA2D3 / RFU, DTX4 / Fold change vs veh, DTX4 / RFU, TFCP2 / Fold change vs veh, TFCP2 / RFU, GMCL1 /// GMCL1P1 / Fold change vs veh, GMCL1 /// GMCL1P1 / RFU, AEBP2 / Fold change vs veh, AEBP2 / RFU, SNHG1 /// SNORD22 /// SNORD25 /// SNORD26 /// SNORD27 /// SNORD28 /// SNORD29 /// SNORD31 / Fold change vs veh, SNHG1 /// SNORD22 /// SNORD25 /// SNORD26 /// SNORD27 /// SNORD28 /// SNORD29 /// SNORD31 / Fold change (Aza/veh), C12orf56 (ProbeSet 11735607_a_at) / Fold change (ACY-1035/veh), C12orf56 (ProbeSet 11735607_a_at) / Fold change (Aza/veh), FGFR1OP (ProbeSet 11751329_s_at) / Fold change (ACY-1035/veh), FGFR1OP (ProbeSet 11751329_s_at) / Fold change (Aza/veh), VPS36 (ProbeSet 11739960_a_at) / Fold change (ACY-1035/veh), VPS36 (ProbeSet 11739960_a_at) / RFU SYPL1 (11715823_x_at) / Fold change /veh SYPL1 (11715823_x_at) / RFU IGFBP7 (11715501_s_at) / Fold change /veh IGFBP7 (11715501_s_at) / RFU REEP3 (11722064_at) / Fold change /veh REEP3 (11722064_at) / RFU IGLL1 (11728026_x_at) / Fold change /veh IGLL1 (11728026_x_at): dose or concentration left out as unconfirmed
Settings: ProbeSet 11741311_a_at; LIST B

Nc1ccc(-c2cccs2)cc1NC(=O)c1ccc2c(c1)cc(C1CC1)n2CCN1CCOCC1 [ACY-1035]
RFU, ZNF655: 32.95 RFU
